Laboratory results as given in ChEMBL document CHEMBL1201862, “PubChem BioAssay data set” (2004).
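Each compound was tested at five concentrations against cells in 96-well plates for 48 hours. GI50: concentration for 50% inhibition of growth.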 Activity calls are given as the source filed them. No stated cut-off is given here; in the data, active = GI50 up to about 1.1 µM and inactive = higher. Where a SMILES comes first, the peptide text is derived from it. The star is where a group is joined. Boc = CC(C)(C)OC(=O)*; OSu = O=C1CCC(=O)N1O*

Key:
Assay in all cases: NCI anticancer screen, dose series, 48 h
MDA-N = tested on: MDA-N
NCI/ADR-RES = tested on: NCI/ADR-RES
SF-268 = tested on: SF-268
LOX IMVI = tested on: LOX IMVI
RPMI-8226 = tested on: RPMI-8226
SW-620 = tested on: SW-620
M14 = tested on: M14
SN12C = tested on: SN12C
HCT-116 = tested on: HCT-116
PC-3 = tested on: PC-3
TK-10 = tested on: TK-10
MDA-MB-435 = tested on: MDA-MB-435
OVCAR-5 = tested on: OVCAR-5
Malme-3M = tested on: Malme-3M
A549 = tested on: A549
OVCAR-4 = tested on: OVCAR-4
NCI-H460 = tested on: NCI-H460

SMILES	GI50 (MDA-N)	GI50 (NCI/ADR-RES)	GI50 (SF-268)	GI50 (LOX IMVI)	GI50 (RPMI-8226)	GI50 (SW-620)	GI50 (M14)	GI50 (SN12C)	GI50 (HCT-116)	GI50 (PC-3)	GI50 (TK-10)	GI50 (MDA-MB-435)	GI50 (OVCAR-5)	GI50 (Malme-3M)	GI50 (A549)	GI50 (OVCAR-4)	GI50 (NCI-H460)
CCOc1ccncc1[N+](=O)[O-]	> 100 µM (inactive)	> 100 µM (inactive)	> 100 µM (inactive)	> 100 µM (inactive)	> 100 µM (inactive)	> 100 µM (inactive)	> 100 µM (inactive)	> 100 µM (inactive)	> 100 µM (inactive)	> 100 µM (inactive)	> 100 µM (inactive)	> 100 µM (inactive)	> 100 µM (inactive)	> 100 µM (inactive)	> 100 µM (inactive)		
C[C@@H]1CC[C@@]2(OC1)O[C@H]1[C@@H](O)[C@H]3[C@@H]4CC[C@H]5C[C@@H](O[C@@H]6O[C@H](CO)[C@H](O[C@@H]7O[C@H](CO)C(O)[C@H](O[C@@H]8OC[C@@H](O)[C@H](O)[C@H]8O)[C@H]7O[C@@H]7O[C@H](CO)[C@H](O)[C@H](O[C@@H]8O[C@H](CO)[C@@H](O)[C@H](O)[C@H]8O)[C@H]7O)[C@H](O)[C@H]6O)[C@H](O)C[C@]5(C)[C@H]4CC[C@]3(C)[C@H]1[C@@H]2C (stereo partly drawn) [DIGITONIN]	3.33 µM (inactive)	3.89 µM (inactive)	2.09 µM (inactive)	3.42 µM (inactive)	3.15 µM (inactive)	5.52 µM (inactive)	12.4 µM (inactive)	2.97 µM (inactive)	1.95 µM (inactive)	2.57 µM (inactive)	2.49 µM (inactive)	11.2 µM (inactive)	2.07 µM (inactive)		2.17 µM (inactive)	1.97 µM (inactive)	1.94 µM (inactive)
CCCCCCCCCCCCCCCCCc1cccc(OCOCCOC)c1CO		> 100 µM (inactive)	> 100 µM (inactive)		> 100 µM (inactive)	> 100 µM (inactive)	> 100 µM (inactive)		> 100 µM (inactive)	> 100 µM (inactive)	> 100 µM (inactive)	> 100 µM (inactive)	> 100 µM (inactive)	> 100 µM (inactive)	> 100 µM (inactive)	> 100 µM (inactive)	> 100 µM (inactive)
CC(C)CN1CN(c2ccccc2)C2(CCN(CC(C)(c3ccc(F)cc3)C3OCCO3)CC2)C1=O (stereo not drawn)	6.84 µM (inactive)	7.41 µM (inactive)	8.39 µM (inactive)	2.08 µM (inactive)	1.94 µM (inactive)	3.17 µM (inactive)	2.36 µM (inactive)	5.75 µM (inactive)	4.51 µM (inactive)	3.55 µM (inactive)	10.8 µM (inactive)	6.62 µM (inactive)	13 µM (inactive)	4.89 µM (inactive)	5.09 µM (inactive)	5.6 µM (inactive)	
CCC(=O)c1ccc2[nH]c3c(C)c4c(O)cc(C)nc4c(C)c3c2c1	> 100 µM (inactive)	> 100 µM (inactive)	> 100 µM (inactive)	> 100 µM (inactive)		> 100 µM (inactive)	> 100 µM (inactive)		> 100 µM (inactive)	> 100 µM (inactive)	63.2 µM (inactive)	> 100 µM (inactive)	> 100 µM (inactive)	> 100 µM (inactive)	> 100 µM (inactive)	> 100 µM (inactive)	> 100 µM (inactive)
CS(=O)(=O)Nc1ccc(Nc2ccnc3ccc4[nH]ccc4c23)cc1		> 100 µM (inactive)	5.13 µM (inactive)	9.12 µM (inactive)	21 µM (inactive)	8.32 µM (inactive)	16.1 µM (inactive)	7.96 µM (inactive)	5.5 µM (inactive)	12.4 µM (inactive)	30.2 µM (inactive)	15.1 µM (inactive)	26.3 µM (inactive)	3.88 µM (inactive)	19.5 µM (inactive)	7.83 µM (inactive)	15.2 µM (inactive)
CC(C)(C)OC(=O)NC(Cc1ccc(O)cc1)C(=O)NC(CCCCN)C(=O)NC(Cc1ccc(O)cc1)C(=O)NC(CCCCN)C(=O)ON1C(=O)CCC1=O (stereo not drawn) (Boc-YKYK-OSu; configuration not given here)	> 100 µM (inactive)				> 100 µM (inactive)	> 100 µM (inactive)	> 100 µM (inactive)	> 100 µM (inactive)	> 100 µM (inactive)	> 100 µM (inactive)	> 100 µM (inactive)		> 100 µM (inactive)	> 100 µM (inactive)	> 100 µM (inactive)		> 100 µM (inactive)
CN(C(=O)OC(C)(C)C)[C@H]1CCCC[C@H]1N1CCCC1		> 100 µM (inactive)	> 100 µM (inactive)	> 100 µM (inactive)	> 100 µM (inactive)	> 100 µM (inactive)	> 100 µM (inactive)	> 100 µM (inactive)	> 100 µM (inactive)	> 100 µM (inactive)	> 100 µM (inactive)	> 100 µM (inactive)	> 100 µM (inactive)	> 100 µM (inactive)	> 100 µM (inactive)	> 100 µM (inactive)	
[N-]=[N+]=CC(=O)OC(CCl)CCl	> 100 µM (inactive)		> 100 µM (inactive)	76 µM (inactive)	> 100 µM (inactive)	> 100 µM (inactive)		> 100 µM (inactive)	> 100 µM (inactive)	> 100 µM (inactive)	> 100 µM (inactive)	> 100 µM (inactive)	> 100 µM (inactive)	> 100 µM (inactive)		> 100 µM (inactive)	25.2 µM (inactive)
CC1=NN(c2cccc(Cl)c2)C(=N/c2nc3ccccc3s2)/C1=C\c1ccc(Cl)cc1	23.4 µM (inactive)	22.5 µM (inactive)	19.3 µM (inactive)	18.2 µM (inactive)	37.2 µM (inactive)	19.9 µM (inactive)	23.8 µM (inactive)		16.9 µM (inactive)	16.4 µM (inactive)	26.4 µM (inactive)		22.6 µM (inactive)				17.2 µM (inactive)
Cc1cccc(-c2nc(-c3cnccn3)n(Cc3ccccc3)n2)c1	> 100 µM (inactive)	> 100 µM (inactive)	> 100 µM (inactive)	> 100 µM (inactive)	> 100 µM (inactive)	> 100 µM (inactive)	> 100 µM (inactive)	> 100 µM (inactive)	> 100 µM (inactive)	> 100 µM (inactive)		> 100 µM (inactive)	> 100 µM (inactive)		> 100 µM (inactive)	27.2 µM (inactive)	> 100 µM (inactive)
Cc1c2ccccc2c(C)n2c1nc1cc3ccccc3cc12	1.47 µM (inactive)	0.897 µM (active)	1.34 µM (inactive)		2.2 µM (inactive)	1.56 µM (inactive)	1.38 µM (inactive)	1.79 µM (inactive)	1.37 µM (inactive)	1.27 µM (inactive)	2.15 µM (inactive)	1.61 µM (inactive)	1.02 µM (active)	1.28 µM (inactive)	1.86 µM (inactive)	1.56 µM (inactive)	1.05 µM (active)
CC(=O)OC1CC(O)CC2=CCC3C4CCC(C(C)(O)C(O)CC5COC(=O)C5C)C4(C)CCC3C21C (stereo not drawn)	> 25 µM (inactive)		> 25 µM (inactive)	> 25 µM (inactive)	14.6 µM (inactive)	> 25 µM (inactive)	> 25 µM (inactive)	> 25 µM (inactive)	15.2 µM (inactive)	> 25 µM (inactive)	> 25 µM (inactive)	> 25 µM (inactive)	> 25 µM (inactive)		> 25 µM (inactive)	> 25 µM (inactive)	> 25 µM (inactive)
CSCCC(NC(=O)Cc1ccc(C(=O)c2ccccc2)cc1)C(=O)O (stereo not drawn)	> 100 µM (inactive)	> 100 µM (inactive)	> 100 µM (inactive)	> 100 µM (inactive)		> 100 µM (inactive)	> 100 µM (inactive)	> 100 µM (inactive)	> 100 µM (inactive)	> 100 µM (inactive)	> 100 µM (inactive)	> 100 µM (inactive)	> 100 µM (inactive)	> 100 µM (inactive)	> 100 µM (inactive)	> 100 µM (inactive)	> 100 µM (inactive)
O=C1C(Cl)=C(NCCN2CCOCC2)C(=O)c2c(O)ccc(O)c21	1.9 µM (inactive)	2.09 µM (inactive)	2.28 µM (inactive)	1.33 µM (inactive)		1.33 µM (inactive)	1.84 µM (inactive)	1.79 µM (inactive)	1.55 µM (inactive)	2.2 µM (inactive)	8.85 µM (inactive)	1.64 µM (inactive)	1 µM (active)	1.84 µM (inactive)	2.12 µM (inactive)	1.72 µM (inactive)	1.58 µM (inactive)
c1ccc(-c2nnn3c2NC2=C(CCCC2)C3c2ccccc2)cc1 (stereo not drawn)	12.9 µM (inactive)	21.7 µM (inactive)	21.3 µM (inactive)	13.7 µM (inactive)	14.9 µM (inactive)	12.5 µM (inactive)	18.8 µM (inactive)	21.1 µM (inactive)	12 µM (inactive)	16.9 µM (inactive)		5.71 µM (inactive)	16 µM (inactive)		12.9 µM (inactive)		23.4 µM (inactive)
O=C1c2ccccc2S(=O)(=O)c2cc(-c3nn[nH]n3)ccc21 [DOXANTRAZOLE]	> 100 µM (inactive)	> 100 µM (inactive)	> 100 µM (inactive)	> 100 µM (inactive)		> 100 µM (inactive)	> 100 µM (inactive)	> 100 µM (inactive)	> 100 µM (inactive)	> 100 µM (inactive)	> 100 µM (inactive)	> 100 µM (inactive)	> 100 µM (inactive)	> 100 µM (inactive)	> 100 µM (inactive)	> 100 µM (inactive)	> 100 µM (inactive)
